Measurements reported in patent US10183944B2 (Asana Biosciences, LLC, priority 2011, dated 2019).
Where a name gives a salt, the structure may show the parent alone.

Legend:
[1] = molecular target: Syk (356-635 amino acids) catalytic domain (Homo sapiens (Human), UniProt P43405); assay: Inhibition of enzymatic Syk kinase activity (radiometric); type: biochemical; conditions: read-out: IC50 Syk
Outline: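 Radiometric filter-binding format: 32P transfer from γ-32P-ATP onto pG4T, scintillation-counted after acid washes of P81 paper. Syk kinase domain (356-635), 0.035–7.5 ng per reaction, was exposed to compound for 30 minutes at room temperature before a 10-minute, 30° C. reaction with ATP (100 μM stock). Inhibition derived from counts with versus without compound.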

JAK2 = JAK2 (Homo sapiens (Human), UniProt O60674); assay: Inhibition of enzymatic JAK2 kinase activity (TR-FRET); type: biochemical; conditions: read-out: IC50 JAK
Sequence of JAK2 (O60674 808-1132): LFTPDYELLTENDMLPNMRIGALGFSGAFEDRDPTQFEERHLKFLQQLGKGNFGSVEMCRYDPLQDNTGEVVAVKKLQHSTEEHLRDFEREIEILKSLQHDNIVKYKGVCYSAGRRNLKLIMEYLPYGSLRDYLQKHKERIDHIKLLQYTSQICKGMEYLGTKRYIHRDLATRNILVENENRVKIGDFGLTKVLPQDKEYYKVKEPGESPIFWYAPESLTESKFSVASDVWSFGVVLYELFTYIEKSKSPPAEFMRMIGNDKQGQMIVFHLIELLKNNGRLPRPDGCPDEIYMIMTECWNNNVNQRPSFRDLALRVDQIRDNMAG
Description: The objective of this assay was to screen compounds in a Time-resolved fluorescence resonance energy transfer (TR-FRET) Enzymatic assay method for their potential to inhibit JAK2 (Janus kinase) activity.
TR-FRET assays are homogeneous proximity assays where Eu-labeled antiphosphotyrosine antibody binds to the phosphorylated substrates labeled with Ulight fluorescence acceptor. Eu can transfer energy to Ulight accepter in the complex and the interaction of two dye-labeled binding partners is detected by the energy transfer between a donor and an acceptor dye, and the subsequent light emission by the acceptor dye. The intensity of the light emission is proportional to the level of Ulight peptide phosphorylation.
Two μL of 10% DMSO in blank, substrate control and positive control wells and 2 μL of test compound in test wells was added. Thirteen μL of assay buffer in blank and substrate control wells and 13 μL of Enzyme buffer mix in positive and test wells was added. The reaction mixture was incubated for 30 minutes at RT on a plate shaker. Ultra Light-pGT substrate (5 μL) [poly Glu-Tyr (4:1) labeled with U Light TM dye, a tyrosine kinase substrate] and ATP mix was added to all wells. The reaction plate was incubated for 60 minutes at RT on a plate shaker. The reaction was stopped by adding 40 mM EDTA (10 μL) in buffer. Ten μL of antibody was added to all the wells. The plate was read in a Wallac® 1420 Multilabel Counter Victor 3 instrument (Ex: 340 nm Em: 615 & 665 nm) The following calculations were made:
F@ 665 Value-Buffer blank
F@ 615 Value-Buffer blank
Ratio of F@665/F@615-Substrate Blank
% Activity=(Test Sample/Positive control)*100%
Inhibition=(100−% Activity)

Row | SMILES | IC50 [1] [nM] | IC50 (JAK2) [nM]
1 | COc1ccccc1-c1nc(Nc2ccc(N3CCC4(CC3)CC4C(=O)O)cc2)c2c(=O)[nH]ncc2n1 (stereo not drawn) [Example 53, 6-(4-((2-(2-methoxylphenyl)-5-oxo-5,6-dihydropyrimido[4,5-d]pyridazin-4-yl)amino)phenyl)-6-azaspiro[2.5]octane-1-carboxylic acid] | > 100 | < 100
2 | N#CCN1CCN(c2nc(Nc3ccc(N4CCC(CC(=O)O)CC4)cc3)c3c(=O)[nH]ncc3n2)CC1 [Example 70, 2-(1-(4-((2-(4-(cyanomethyl)piperazin-1-yl)-5-oxo-5,6-dihydropyrimido[4,5-d]pyridazin-4-yl)amino)phenyl)piperidin-4-yl)acetic acid] | < 100 | > 100
3 | O=C(O)C1CC12CCN(c1ccc(Nc3nc(N4CCCNCC4)nc4cn[nH]c(=O)c34)cc1)CC2 (stereo not drawn) [Example 72, 6-(4-((2-(1,4-diazepan-1-yl)-5-oxo-5,6-dihydropyrimido[4,5-d]pyridazin-4-yl)amino)phenyl)-6-azaspiro[2.5]octane-1-carboxylic acid hydrochloride] | < 50 | < 100
4 | O=C(O)C1CC12CCN(c1ccc(Nc3nc(C4CCCCC4)nc4cn[nH]c(=O)c34)cc1)CC2 (stereo not drawn) [Example 79, 6-(4-((2-cyclohexyl-5-oxo-5,6-dihydropyrimido[4,5-d]pyridazin-4-yl)amino)phenyl)-6-azaspiro[2.5]octane-1-carboxylic acid] | < 50 | < 10
5 | N#CCC1CCN(c2ccc(Nc3nc(N4CCCCCC4)nc4cn[nH]c(=O)c34)cc2)CC1 [Example 80, 2-(1-(4-((2-(azepan-1-yl)-5-oxo-5,6-dihydropyrimido[4,5-d]pyridazin-4-yl)amino)phenyl)piperidin-4-yl)acetonitrile] | < 50 | < 10
6 | O=C(O)C1CC12CCN(c1ccc(Nc3nc(C4CCCCCC4)nc4cn[nH]c(=O)c34)cc1)CC2 (stereo not drawn) [Example 81, 6-(4-((2-cycloheptyl-5-oxo-5,6-dihydropyrimido[4,5-d]pyridazin-4-yl)amino)phenyl)-6-azaspiro[2.5]octane-1-carboxylic acid] | < 50 | < 10
7 | CC(C)(O)C(=O)N1CCN(Cc2ccc(Nc3nc(N4CCCCCC4)nc4cn[nH]c(=O)c34)cc2)CC1 [Example 84, 2-(azepan-1-yl)-4-((4-((4-(2-hydroxy-2-methylpropanoyl)piperazin-1-yl)methyl)phenyl)amino)pyrimido[4,5-d]pyridazin-5(6H)-one] | < 50 | < 10
8 | O=C(O)CC1CCC(c2ccc(Nc3nc(-c4ccccc4)nc4cn[nH]c(=O)c34)cc2)CC1 (stereo not drawn) [Example 87, 2-(4-(4-((5-oxo-2-phenyl-5,6-dihydropyrimido[4,5-d]pyridazin-4-yl)amino)phenyl)cyclohexyl)acetic acid] | < 50 | < 100
9 | CC(C)(C#N)C1CCN(c2nc(Nc3ccc(N4CCC(CC(=O)O)CC4)cc3)c3c(=O)[nH]ncc3n2)CC1 [Example 100, 2-(1-(4-((2-(4-(2-cyanopropan-2-yl)piperidin-1-yl)-5-oxo-5,6-dihydropyrimido[4,5-d]pyridazin-4-yl)amino)phenyl)piperidin-4-yl)acetic acid] | < 50 | < 50

Next, values leading:

Row | IC50 [1] [nM] | IC50 (JAK2) [nM] | SMILES
10 | < 100 | > 100 | COc1ccc(-c2nc(Nc3ccc(CN4CCNCC4)cc3)c3c(=O)[nH]ncc3n2)cc1 [Example 41, 2-(4-methoxyphenyl)-4-(4-(piperazin-1-ylmethyl)phenylamino)pyrimido[4,5-d]pyridazin-5(6H)-one hydrochloride]
11 | > 100 | > 100 | O=c1[nH]ncc2nc(N3CC[S+]([O-])CC3)nc(Nc3ccc(CN4CCNCC4)cc3)c12 [Example 44, 2-(1-oxidothiomorpholino)-4-((4-(piperazin-1-ylmethyl)phenyl)amino) pyrimido[4,5-d]pyridazin-5(6H)-one hydrochloride]
12 | > 100 | > 100 | CN1CCN(c2nc(Nc3ccc(CN4CCNCC4)cc3)c3c(=O)[nH]ncc3n2)CC1 [Example 45, 2-(4-methylpiperazin-1-yl)-4-((4-(piperazin-1-ylmethyl)phenyl)amino) pyrimido[4,5-d]pyridazin-5(6H)-one hydrochloride]
13 | < 100 | < 100 | CN(C)c1nc(Nc2ccc(CN3CCNCC3)cc2)c2c(=O)[nH]ncc2n1 [Example 49, 2-(dimethylamino)-4-((4-(piperazin-1-ylmethyl)phenyl)amino)pyrimido[4,5-d]pyridazin-5(6H)-one hydrochloride]
14 | > 100 | > 100 | O=C(O)C1CCN(c2nc(Nc3ccc(CN4CCNCC4)cc3)c3c(=O)[nH]ncc3n2)CC1 [Example 51, 1-(5-oxo-4-((4-(piperazin-1-ylmethyl)phenyl)amino)-5,6-dihydropyrimido[4,5-d]pyridazin-2-yl)piperidine-4-carboxylic acid hydrochloride]
15 | > 100 | > 100 | O=c1[nH]ncc2nc(-c3ccc(CN4CCOCC4)cc3)nc(Nc3ccc(CN4CCNCC4)cc3)c12 [Example 55, 2-(4-(morpholinomethyl)phenyl)-4-((4-(piperazin-1-ylmethyl)phenyl)amino) pyrimido[4,5-d]pyridazin-5(6H)-one hydrochloride]
16 | > 100 | < 50 | N#CC1CCN(c2nc(Nc3ccc(CN4CCNCC4)cc3)c3c(=O)[nH]ncc3n2)CC1 [Example 56, 1-(5-oxo-4-((4-(piperazin-1-ylmethyl)phenyl)amino)-5,6-dihydropyrimido[4,5-d]pyridazin-2-yl)piperidine-4-carbonitrile hydrochloride]
17 | < 50 | > 100 | O=c1[nH]ncc2nc(N3CCCNCC3)nc(Nc3ccc(CN4CCNCC4)cc3)c12 [Example 59, 2-(1,4-diazepan-1-yl)-4-((4-(piperazin-1-ylmethyl)phenyl)amino)pyrimido[4,5-d]pyridazin-5(6H)-one dihydrochloride]
18 | < 50 | < 10 | O=C(O)CC1CCN(Cc2ccc(Nc3nc(N4CCCCCC4)nc4cn[nH]c(=O)c34)cc2)CC1 [Example 77, 2-(1-(4-((2-(azepan-1-yl)-5-oxo-5,6-dihydropyrimido[4,5-d]pyridazin-4-yl)amino)benzyl)piperidin-4-yl)acetic acid]
19 | < 50 | < 50 | CC(C)(O)C(=O)N1CCN(Cc2ccc(Nc3nc(-c4ccccc4)nc4cn[nH]c(=O)c34)cc2)CC1 [Example 83, 4-((4-((4-(2-hydroxy-2-methylpropanoyl)piperazin-1-yl)methyl)phenyl)amino)-2-phenylpyrimido[4,5-d]pyridazin-5(6H)-one]
20 | < 50 | < 10 | CN1CCN(Cc2ccc(Nc3nc(N4CCCCCC4)nc4cn[nH]c(=O)c34)cc2)CC1 [Example 85, 2-(azepan-1-yl)-4-((4-((4-methylpiperazin-1-yl)methyl)phenyl)amino)pyrimido[4,5-d]pyridazin-5(6H)-one]
21 | < 50 | < 50 | O=C(O)CN1CCC(c2ccc(Nc3nc(-c4ccccc4)nc4cn[nH]c(=O)c34)cc2)CC1 [Example 86, 2-(4-(4-((5-oxo-2-phenyl-5,6-dihydropyrimido[4,5-d]pyridazin-4-yl)amino)phenyl)piperidin-1-yl)acetic acid]
